The values that follow come from patent US8541598B2, “Biodegradable solvents for the chemical industry” (Dublin City University, priority 2007, dated 2013).

The series has as its system Pseudomonas aeruginosa, Escherichia coli, Klebsiella sp., Salmonella sp., Staphylococcus aureus, Enterococcus sp., Bacillus subtilis. Put plainly: Antimicrobial activity / minimum inhibitory concentrations on seven strains of bacteria. Type of series: cell-based. The settings on record: for toxicity / antibacterial activity in words: seven strains of bacteria; for MIC values: seven strains, not split, range tested 0-20000 μg/ml. As for the experimental part: Seven strains of bacteria were used in the assessment of the antimicrobial activity of the ILs claimed: 4 gram negative and three gram positive as shown below.
A wide concentration range was tested (0-20000 μg/ml). The concentrations screened for antibacterial activity are generally from 2 μg/ml to 1000 μg/ml (Table 6). […] The concentration range screened for the ILs containing ethers was up to 20000 μg/ml. At these high concentrations a lack of antibacterial activity is a significant result.

As for `CCCCOCCOCCOC(=O)Cn1cc[n+](C)c1.O=S(=O)([N-]S(=O)(=O)C(F)(F)F)C(F)(F)F` [KG56, 3-methyl-1-(2-[2-butoxyethoxy]ethoxycarbonylmethyl)imidazolium NTf2], the “toxicity / antibacterial activity in words” value was “non-toxic” and the MIC values was greater than 20000 KG56 μg/ml.
In the same order, the values of `CCCCOCCOC(=O)Cn1cc[n+](C)c1.N#C[N-]C#N` [KG78, 3-methyl-1-(2-[2-butoxy]ethoxycarbonylmethyl)imidazolium N(CN)2] are “non-toxic” and greater than 20000 KG78 μg/ml.
Take “3-methyl-1-(2-[2-methoxy]ethoxycarbonylmethyl)imidazolium PF6 [KG23]”: the “toxicity / antibacterial activity in words” value is listed as “non-toxic” and the MIC values is greater than 20000 KG23 μg/ml.
On to “3-methyl-1-(2-[2-methoxy]ethoxycarbonylmethyl)imidazolium BF4 [KG62]”, for which the “toxicity / antibacterial activity in words” value was “non-toxic” and the MIC values is greater than 20000 KG62 μg/ml.
Consider `COCCOCCOC(=O)C[n+]1ccn(C)c1C.N#C[N-]C#N` [KG85, 2,3-dimethyl-1-(2-[2-methoxyethoxy]ethoxycarbonylmethyl)imidazolium N(CN)2], for which the “toxicity / antibacterial activity in words” value is given as “non-toxic” and the MIC values is on record as greater than 20000 KG85 μg/ml.
In the same order, the values of “2,3-dimethyl-1-(2-[2-methoxyethoxy]ethoxycarbonylmethyl)imidazolium PF6 [KG33]” are “non-toxic” and greater than 20000 KG33 μg/ml.
For `Cc1n(CC(=O)N2CCCC2)cc[n+]1C.[Br-]` [KG421, 2,3-dimethyl-1-(pyrrolidinylcarbonylmethyl)imidazolium bromide, reference compound], the MIC values is greater than 20000 KG421 μg/ml.
Take `CCOCCOCCOC(=O)C[n+]1ccn(C)c1.O=S(=O)([N-]S(=O)(=O)C(F)(F)F)C(F)(F)F` [KG54, 3-methyl-1-(2-[2-ethoxyethoxy]ethoxycarbonylmethyl)imidazolium NTf2]: the “toxicity / antibacterial activity in words” value is listed as “non-toxic” and the MIC values is listed as greater than 20000 KG54 μg/ml.
For the compound “3-methyl-1-(2-[2-propoxy]ethoxycarbonylmethyl)imidazolium PF6 [KG25]”, the “toxicity / antibacterial activity in words” value is given as “non-toxic” and the MIC values is recorded as greater than 20000 KG25 μg/ml.
In the same order, the values of `CCCCOCCOC(=O)C[n+]1ccn(C)c1C.O=S(=O)([N-]S(=O)(=O)C(F)(F)F)C(F)(F)F` [KG58, 2,3-dimethyl-1-(2-[2-butoxy]ethoxycarbonylmethyl)imidazolium NTf2] are “non-toxic” and greater than 20000 KG58 μg/ml.
As to `C[n+]1ccn(CC(=O)N2CCCC2)c1.[Br-]` [KG420, 3-methyl-1-(pyrrolidinylcarbonylmethyl)imidazolium bromide, reference compound], the MIC values is greater than 20000 KG420 μg/ml.
Regarding “3-methyl-1-(2-[2-butoxyethoxy]ethoxycarbonylmethyl)imidazolium PF6 [KG30]”, the “toxicity / antibacterial activity in words” value is recorded as “non-toxic” and the MIC values was greater than 20000 KG30 μg/ml.
The matching figures for “3-methyl-1-(2-[2-methoxy]ethoxycarbonylmethyl)imidazolium bromide [KG7]”: “non-toxic” and greater than 20000 KG7 μg/ml.
Take “3-methyl-1-(2-[2-methoxyethoxy]ethoxycarbonylmethyl)imidazolium BF4 [KG66]”: the “toxicity / antibacterial activity in words” value is recorded as “non-toxic” and the MIC values is greater than 20000 KG66 μg/ml.
Turning to “3-methyl-1-(2-[2-propoxy]ethoxycarbonylmethyl)imidazolium BF4 [KG64]”, the “toxicity / antibacterial activity in words” value was “non-toxic” and the MIC values was greater than 20000 KG64 μg/ml.
In the same order, the values of `COCCOCCOC(=O)Cn1cc[n+](C)c1C.O=S(=O)([N-]S(=O)(=O)C(F)(F)F)C(F)(F)F` [KG59, 2,3-dimethyl-1-(2-[2-methoxyethoxy]ethoxycarbonylmethyl)imidazolium NTf2] are “non-toxic” and greater than 20000 KG59 μg/ml.
“2,3-dimethyl-1-(2-[2-methoxyethoxy]ethoxycarbonylmethyl)imidazolium BF4 [KG72]”: the “toxicity / antibacterial activity in words” value is given as “non-toxic” and the MIC values was greater than 20000 KG72 μg/ml.
In the same order, the values of “3-methyl-1-(2-[2-ethoxy]ethoxycarbonylmethyl)imidazolium PF6 [KG24]” are “non-toxic” and greater than 20000 KG24 μg/ml.
For the compound “3-methyl-1-(2-[2-ethoxy]ethoxycarbonylmethyl)imidazolium BF4 [KG63]”, the “toxicity / antibacterial activity in words” value is listed as “non-toxic” and the MIC values was greater than 20000 KG63 μg/ml.
In the same order, the values of `CCCCOCCOC(=O)Cn1cc[n+](C)c1C.N#C[N-]C#N` [KG84, 2,3-dimethyl-1-(2-[2-butoxy]ethoxycarbonylmethyl)imidazolium N(CN)2] are “non-toxic” and greater than 20000 KG84 μg/ml.
Regarding `COCCOC(=O)Cn1cc[n+](C)c1.O=S(=O)([N-]S(=O)(=O)C(F)(F)F)C(F)(F)F` [KG49, 3-methyl-1-(2-[2-methoxy]ethoxycarbonylmethyl)imidazolium NTf2], the “toxicity / antibacterial activity in words” value is recorded as “non-toxic” and the MIC values stood at 10000 KG49 μg/ml.
In the same order, the values of `CCOCCOCCOC(=O)Cn1cc[n+](C)c1.N#C[N-]C#N` [KG80, 3-methyl-1-(2-[2-ethoxyethoxy]ethoxycarbonylmethyl)imidazolium N(CN)2] are “non-toxic” and greater than 20000 KG80 μg/ml.
In the same order, the values of “3-methyl-1-(2-[2-methoxyethoxy]ethoxycarbonylmethyl)imidazolium PF6 [KG27]” are “non-toxic” and 2500 KG27 μg/ml.
In the same order, the values of “3-methyl-1-(2-[2-butoxy]ethoxycarbonylmethyl)imidazolium BF4 [KG65]” are “non-toxic” and greater than 20000 KG65 μg/ml.
Turning to “3-methyl-1-(2-[2-ethoxyethoxy]ethoxycarbonylmethyl)imidazolium PF6 [KG28]”, the “toxicity / antibacterial activity in words” value is given as “non-toxic” and the MIC values is greater than 20000 KG28 μg/ml.
The matching figures for “2,3-dimethyl-1-(2-[2-butoxy]ethoxycarbonylmethyl)imidazolium PF6 [KG32]”: “non-toxic” and greater than 20000 KG32 μg/ml.
As for `COCCOCCOC(=O)Cn1cc[n+](C)c1.N#C[N-]C#N` [KG79, 3-methyl-1-(2-[2-methoxyethoxy]ethoxycarbonylmethyl)imidazolium N(CN)2], the “toxicity / antibacterial activity in words” value is “non-toxic” and the MIC values is recorded as greater than 20000 KG79 μg/ml.
For the compound `CCCOCCOCCOC(=O)Cn1cc[n+](C)c1.N#C[N-]C#N` [KG81, 3-methyl-1-(2-[2-propoxyethoxy]ethoxycarbonylmethyl)imidazolium N(CN)2], the “toxicity / antibacterial activity in words” value is reported as “non-toxic” and the MIC values is greater than 20000 KG81 μg/ml.
